# Measured values taken from US20200268831A1, “METHODS FOR ENHANCING IMMUNOTHERAPY IN THE TREATMENT OF CANCER” (The Texas A&M University System, priority 2017, published 2020).
# How the values were obtained:
# [1] = test system: MHC class II expressing B cells; assay: MHCII-mediated cell death of CpG-activated cells after peptide and anti-MHCII antibody; assay type: cell-based, C57/B6 mice; settings: CpG activated cells treated with peptide followed by antibodies to MHCII; FIG. 3A
# Experimental: In a first experiment, animals were injected with complete Freunds adjuvant (CFA) that contains mycobacterial DNA (a well-established TLR activator), or with CFA followed by the competitive antagonist peptide (CLIP inhibitor, SEQ ID NO. 2). Spleens were harvested, stained with CD19 for the detection of B cells, versus CLIP as an indicator of CD19+ cells expressing CLIP. The effect of CLIP inhibitors delivered in vivo on B cells (1A) versus CLIP+B cells (1B) is presented in the bar graphs.
# To test the hypothesis that CLIP in the groove prevents MHCII-mediated cell death, we utilized animals that are deficient in CD74 expression (Ii Def mice), thus lacking both the precursor CD74 molecule as well as its proteolytic product, CLIP. […] any increase in cell death following CpG treatment, FIGS. 3A and 3B. […] The absence of CLIP (CLIP knock outs) leaves the cells susceptible to MHC Class II-mediated cell death (3B).
# MHCII in B cells = assay: competitive displacement of peptides in the peptide binding groove of MHCII in B cells; assay type: cell-based; settings: preliminary studies
# Experimental: To confirm the expression of MHCII staining with fluorochrome-conjugated anti-MHCII antibodies, followed by flow cytometric analysis may be performed. The cells are stained for a panel of cell surface molecules, including CD19, CD80 (B7.1), CD86 (B7.2), CD74, MHCII associated invariant peptide (CLIP), and the family of immune check points, including PD1, B7-H2, and B7-H4. As a starting concentration, the cultured cells are treated with a competitive antagonist peptide (CAP) at a concentration of 5 μg/ml, as established from preliminary studies as the optimum concentration for competitive displacement of peptides in the peptide binding groove of MHCII in B cells. […] To characterize these parameters, including levels of MHCII and other cell surface characteristics, the cells are treated with the competitive antagonist peptide at the previously determined optimum concentration, presumably 5 μg/ml, followed by treatment with anti-MHCII antibody as a surrogate for TCR engagement. Susceptibility to MHCII-mediated cell death is assessed by treating the cells with peptide, followed by treatment with anti-MHCII antibody for periods ranging between 3 and 24 hours to determine the optimum kinetics for inducing cell death. […] The capability of CAP peptide treatment to promote MHCII-mediated cell death may be assessed.
sequence,measurement,setting,value
FRIMAVLAS [TPP],MHC Class-II-mediated cell death,[1],MHC Class-II-mediated cell death can be restored
same,optimum concentration for competitive displacement of peptides in the peptide binding groove of MHCII,MHCII in B cells,5 µg/mL
